The values that follow come from US20240010589A1, “SUBSTITUTED RESORCINOL COMPOUNDS AS AMPK ACTIVATORS, COMPOSITIONS, METHODS AND USES THEREOF” (SOCIETE DES PRODUITS NESTLE S.A., priority 2020, published 2024).

SMILES strings stand for the structures. Entries after “also recorded” stand apart in the source; their conditions may differ.

Test [1] deals with AMPK containing β1 wild-type (WT) subunit. The experiment in a line: pACC HTRF assay in AMPKβ1/β2 double knockout U-2 OS cells stably expressing β1 WT. The settings on record: varying concentrations, 30 mins at 37 C, FIG. 2. The class given is cell-based, human. On the procedure:
(§1) The β1 WT or β1 S108A mutant were stably expressed in […] double knockout cells and were treated with varying concentrations of Compound 1 for 30 mins at 37 C. Phosphorylation of ACC was assessed using the HTRF Cisbio (pACC kit).
(§2) AMPKβ1/β2 double knockout U-2 OS Flp-In™ T-Rex™ cell lines were generated by Horizon Discovery (Cambridge, UK). Cells were genotyped and analysed by Western blotting to confirm that there was a complete knockout of AMPKβ1/β2. We took these AMPKβ1/β2 double knockout cells, and re-introduced the expression of human β1 wild-type (WT) or a (31 Serine 108 to alanine mutation (S108A). This was achieved using the Flp-In™ system (Invitrogen) present in this cell line and stable cells expressing β1 WT or a β1 S108A mutant were generated according to the manufacturers' protocols. Re-expression of the β1 subunit was confirmed by Western blot analysis.
(§3) Cells stably expressing β1 WT or a β1 S108A mutant were treated with varying concentrations of Compound 1. Cells lysates were subjected to the pACC HTRF (Cisbio) assay to determine the level of phosphorylation of the AMPK substrate, ACC, in cell lysates, as in example 1.
In general terms: TR-FRET usually uses a lanthanide donor and a delayed reading to cut background.

The next test relates to AMPK. The experiment in a line: pACC HTRF assay (Cisbio) in U-2 OS Flp-In T-REx cells. The settings on record: varying concentrations, 30 mins at 37 C, FIG. 1. The class given is cell-based. On the procedure: Compound 1 increased the phosphorylation of the AMPK substrate, acetyl-CoA carboxylase (ACC), in U-2 OS Flp-In T-REx mammalian cells. U-2 OS cells were treated with varying concentrations of Compound 1 for 30 mins at 37 C. Phosphorylation of ACC was assessed using the HTRF Cisbio (pACC kit). […] U-2 OS Flp-In T-REx cells were seeded at 50 K in a 96-well plate and left overnight at 37 C in DMEM GlutaMAX (Thermo Fisher Scientific) supplemented with 10% (vol/vol) FBS and 100 U/ml penicillin G, and 100 μg/ml streptomycin. Cells were treated for 30 mins with varying concentrations of Compound 1 in media lacking FBS and then cells were lysed in 50 μl of Cisbio lysis buffer #1 supplemented with blocking solution as per the manufacturer's protocol (Cisbio). Cells were lysed for 30 mins at room temperature before 16 μl of lysate was incubated with 4 μl of the HTRF antibodies (1:40 dilution of the acceptor and donor (p)ACC antibodies, as per the manufacturers protocol). Lysates were incubated overnight with the antibodies before the 665 nm/620 nm ratio was determined using a MolecularDevices i3 plate reader (with a HTRF cartridge add-on). […] Phosphorylation of ACC is extensively used as a cellular read-out of AMPK activity.

Test [2] concerns AMPK containing β1 S108A (ADaM site) mutant subunit. The experiment in a line: pACC HTRF assay in AMPKβ1/β2 double knockout U-2 OS cells stably expressing β1 S108A mutant. The settings on record: varying concentrations, 30 mins at 37 C, FIG. 2. In kind it is cell-based, human. On the procedure:
as §1, §2, §3

`C=C(C)[C@@H]1CCC(C)=C[C@H]1c1c(O)cc(CCCCC)cc1O` [Compound 1, 2-[(1R,6R)-3-Methyl-6-(1-methylethenyl)-2-cyclohexen-1-yl]-5-pentyl-1,3-benzenediol]: the “phosphorylation of ACC (pACC), fold increase in activation” value in test [1] is “able to dose-dependently increase pACC”. In addition, the “phosphorylation of the AMPK substrate ACC (HTRF ratio 665/620 nm)” value with AMPK was “increased the phosphorylation of the AMPK substrate, ACC, in a dose-dependent manner”. The “phosphorylation of ACC (pACC) / AMPK activation, fold increase in activation” value in test [2] was “did not activate AMPK; also recorded: not able to increase the activity of AMPK”.
